Source: BindingDB's records for doi:10.1016/j.chembiol.2011.05.012 (University of Bern, 2011)
Several values for one entry are separate records, joined by “and”; a condition that tells them apart may be missing. Equal entries are not always repeated.

Assays:
[1] = molecular target: Cannabinoid receptor 2 (Homo sapiens, UniProt P34972); test: Binding Assay
Source text: (§1) Binding assay with hCB1 and hCB2 receptors.

[2] = molecular target: Cannabinoid receptor 1 (Homo sapiens, UniProt P21554); test: Binding Assay
Sequence of Cannabinoid receptor 1 (P21554 whole entry): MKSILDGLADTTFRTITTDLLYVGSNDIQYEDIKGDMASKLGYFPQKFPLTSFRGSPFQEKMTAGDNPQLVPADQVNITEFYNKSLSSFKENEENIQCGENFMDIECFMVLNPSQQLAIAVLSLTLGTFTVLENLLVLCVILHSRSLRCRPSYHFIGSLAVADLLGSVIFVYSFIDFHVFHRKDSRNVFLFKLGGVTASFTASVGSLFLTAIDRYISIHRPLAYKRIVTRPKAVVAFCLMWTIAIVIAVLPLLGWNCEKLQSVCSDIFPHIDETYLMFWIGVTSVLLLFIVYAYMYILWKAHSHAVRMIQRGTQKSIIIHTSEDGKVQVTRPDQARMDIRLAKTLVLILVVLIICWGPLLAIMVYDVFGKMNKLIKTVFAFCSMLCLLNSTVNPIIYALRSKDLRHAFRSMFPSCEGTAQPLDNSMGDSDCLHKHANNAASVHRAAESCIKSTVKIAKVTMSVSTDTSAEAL
Source text: as §1

Sequence of Cannabinoid receptor 2 (P34972 whole entry): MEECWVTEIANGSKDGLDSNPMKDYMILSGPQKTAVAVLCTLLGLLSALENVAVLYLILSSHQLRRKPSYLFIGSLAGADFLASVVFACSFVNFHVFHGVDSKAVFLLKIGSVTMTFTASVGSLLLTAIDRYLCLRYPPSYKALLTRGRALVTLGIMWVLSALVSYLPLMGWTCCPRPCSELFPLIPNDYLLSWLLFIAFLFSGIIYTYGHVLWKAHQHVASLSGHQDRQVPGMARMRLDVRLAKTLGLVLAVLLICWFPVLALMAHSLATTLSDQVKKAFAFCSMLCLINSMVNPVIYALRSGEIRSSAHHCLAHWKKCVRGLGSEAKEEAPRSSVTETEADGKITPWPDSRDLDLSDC

Structure (SMILES) | Ki [1] | Ki [2] [nM]
CCCc1ccc(O)c(-c2ccc(O)c(CCC)c2)c1 | 1300 nM | > 5000
CCCc1ccc(O)c(-c2ccc(OC)c(CCC)c2)c1 | 74 nM | > 2000
C=CCc1ccc(O)c(-c2cc(CC=C)ccc2O)c1 [2-(2-hydroxy-5-prop-2-enylphenyl)-4-prop-2-enylphenol] | > 2000 nM | –
CCCCC/C=C/C/C=C/C/C=C/C/C=C/CCCC(=O)OC(CO)CO [2-Arachidonoylglycerol, 2-AG] | 892 nM | –
C=CCc1ccc(O)c(-c2ccc(O)c(CC=C)c2)c1 [3',5-diallylbiphenyl-2,4'-diol] | 1760 nM | –
C=CCc1ccc(O)c(-c2ccc(OC)c(/C=C/C)c2)c1 [Magreth-3a] | 40.8 nM and 59.1 nM | > 5000
C=CCc1ccc(O)c(-c2ccc(O)c(/C=C/C)c2)c1 [Magreth-4] | 1760 nM | > 5000
C=CCc1cc(-c2cc(CC(C)Br)ccc2O)ccc1OC (stereo unspecified) [Magreth-11a] | 1080 nM | > 5000
C=CCc1ccc(O)c(-c2ccc(OC)c(CC(C)Br)c2)c1 (stereo unspecified) [Magreth-11b] | 84 nM | 860
COc1ccc(-c2cc(CC(C)Br)ccc2O)cc1CC(C)Br (stereo unspecified) [Magreth-11c] | 427 nM | > 5000
C=CCc1cc(-c2cc(CC(C)Br)ccc2O)ccc1O (stereo unspecified) [Magreth-12a] | 1260 nM | > 5000
CC(Br)Cc1ccc(O)c(-c2ccc(O)c(CC(C)Br)c2)c1 (stereo unspecified) [Magreth-12b] | 680 nM | > 5000
C=CCc1ccc(O)c(-c2ccc(OC)c(CC=C)c2)c1 [Magreth-14a] | 43.9 nM and 138 nM | 790
C=CCc1ccc(OCC)c(-c2ccc(O)c(CC=C)c2)c1 [Magreth-16a] | 51 nM | –
C=CCc1ccc(O)c(-c2ccc(OCC)c(CC=C)c2)c1 [Magreth-16b] | 40 nM | 970
C=CCc1ccc(OCCC)c(-c2ccc(O)c(CC=C)c2)c1 [Magreth-17a] | 57 nM | > 5000
C=CCc1ccc(O)c(-c2ccc(OCCC)c(CC=C)c2)c1 [Magreth-17b] | 46 nM | > 5000
C=CCc1ccc(OCCCCC)c(-c2ccc(O)c(CC=C)c2)c1 [Magreth-18a] | 102 nM | > 5000
C=CCc1ccc(O)c(-c2ccc(OCCCCC)c(CC=C)c2)c1 [Magreth-18b] | > 3000 nM | > 5000
C=CCc1ccc(OCC)c(-c2ccc(OCC)c(CC=C)c2)c1 [Magreth-19] | 134 nM | > 3000
